# In patent publication US4272437A, “Antibacterial agents, and 4-thio azetidinone intermediates” (priority 1979, dated 1981):
# Where two headings read alike, the source gives them in different places.
# Tests used:
# Str. pneumoniae A-9585 = assay: MIC, tube dilution, Streptococcus pneumoniae A9585; format: cell-based; details: Streptococcus pneumoniae, A9585, Str. pneumoniae A9585; overnight 37° C., Nutrient Broth; read-out: Minimum Inhibitory Concentration (M.I.C.)
# Text: (§1) Representative compounds of the present invention were subjected to in vitro antibiotic screening against a variety of microorganisms.
# Str. pyogenes A-9604 = assay: MIC, tube dilution, Streptococcus pyogenes A9604; format: cell-based; details: Streptococcus pyogenes, A9604, Str. pyogenes A9604; overnight 37° C., Nutrient Broth; read-out: Minimum Inhibitory Concentration (M.I.C.)
# Text: as §1
# Staph. aureus A-9537 = assay: MIC, tube dilution, Staphylococcus aureus A9537; format: cell-based; details: Staphylococcus aureus, A9537, Staph. aureus A9537; overnight 37° C., Nutrient Broth; read-out: Minimum Inhibitory Concentration (M.I.C.)
# Text: as §1
# [1] = test system: Staph. aureus A-9537 and 50% serum; assay: MIC, tube dilution, Staph. aureus A9537 + 50% serum; format: cell-based, Staphylococcus aureus; details: Staphylococcus aureus, overnight 37° C., read-out: Minimum Inhibitory Concentration (M.I.C.)
# Text: as §1
# [2] = test system: Staph. aureus (Pen-Res) A-9606; assay: MIC, tube dilution, Staphylococcus aureus A9606 (Pen-Res); format: cell-based; details: Staphylococcus aureus, Staph. aureus A9606 (Pen-Res); overnight 37° C.; read-out: Minimum Inhibitory Concentration (M.I.C.)
# Text: as §1
# [3] = test system: Staph. aureus (Meth-Res) A-15097; assay: MIC, tube dilution, Staphylococcus aureus A15097 (Meth-Res); format: cell-based; details: Staphylococcus aureus, Staph. aureus A15097 (Meth-Res); overnight 37° C.; read-out: Minimum Inhibitory Concentration (M.I.C.)
# Text: as §1
# Str. faecalis A-20688 = assay: MIC, tube dilution, Streptococcus faecalis A20688; format: cell-based; details: Enterococcus faecalis, A20688, Str. faecalis A20688; overnight 37° C.; read-out: Minimum Inhibitory Concentration (M.I.C.)
# Text: as §1
# E. coli A-15119 = assay: MIC, tube dilution, Escherichia coli A15119; format: cell-based; details: Escherichia coli, A15119, E. coli A15119; overnight 37° C.; read-out: Minimum Inhibitory Concentration (M.I.C.)
# Text: as §1
# E. coli A-20341-1 = assay: MIC, tube dilution, Escherichia coli A20341-1; format: cell-based; details: Escherichia coli, A203411, E. coli A20341-1; overnight 37° C.; read-out: Minimum Inhibitory Concentration (M.I.C.)
# Text: as §1
# K. pneumoniae A-15130 = assay: MIC, tube dilution, Klebsiella pneumoniae A15130; format: cell-based; details: Klebsiella pneumoniae, A15130, K. pneumoniae A15130; overnight 37° C.; read-out: Minimum Inhibitory Concentration (M.I.C.)
# Text: as §1
# [4] = test system: Klebsiella species A20468; assay: MIC, tube dilution, Klebsiella species A20468; format: cell-based; details: Klebsiella species (K. pneumoniae) A20468; overnight 37° C.; read-out: Minimum Inhibitory Concentration (M.I.C.)
# Text: as §1
# Pr. mirabilis A-9900 = assay: MIC, tube dilution, Proteus mirabilis A9900; format: cell-based; details: Proteus mirabilis, A9900, Proteus mirabilis A9900; overnight 37° C.; read-out: Minimum Inhibitory Concentration (M.I.C.)
# Text: as §1
# Pr. morganii A-15153 = assay: MIC, tube dilution, Proteus morganii A15153; format: cell-based; details: Morganella morganii, A15153, Proteus morganii A15153; overnight 37° C.; read-out: Minimum Inhibitory Concentration (M.I.C.)
# Text: as §1
# Ser. marcescens A-20019 = assay: MIC, tube dilution, Serratia marcescens A20019; format: cell-based; details: Serratia marcescens, A20019, Serratia marcescens A20019; overnight 37° C.; read-out: Minimum Inhibitory Concentration (M.I.C.)
# Text: as §1
# Ent. cloacae A-9659 = assay: MIC, tube dilution, Enterobacter cloacae A9659; format: cell-based; details: Enterobacter cloacae, A9659, Enterobacter cloacae A9659; overnight 37° C.; read-out: Minimum Inhibitory Concentration (M.I.C.)
# Text: as §1
# Ent. cloacae A-9656 = assay: MIC, tube dilution, Enterobacter cloacae A9656; format: cell-based; details: Enterobacter cloacae, A9656, Enterobacter cloacae A9656; overnight 37° C.; read-out: Minimum Inhibitory Concentration (M.I.C.)
# Text: as §1
# Ps. aeruginosa A-9843A = assay: MIC, tube dilution, Pseudomonas aeruginosa A9843A; format: cell-based; details: Pseudomonas aeruginosa, A9843A, read-out: Minimum Inhibitory Concentration (M.I.C.), Pseudomonas aeruginosa A9843A; overnight 37° C.
# Text: as §1
# Ps. aeruginosa A-21213 = assay: MIC, tube dilution, Pseudomonas aeruginosa A21213; format: cell-based; details: Pseudomonas aeruginosa, A21213, Pseudomonas aeruginosa A21213; overnight 37° C.; read-out: Minimum Inhibitory Concentration (M.I.C.)
# Text: as §1
# Proteus rettgeri A21203 = assay: MIC, tube dilution, Proteus rettgeri A21203; format: cell-based; details: Providencia rettgeri, A21203, Proteus rettgeri A21203; overnight 37° C.; read-out: Minimum Inhibitory Concentration (M.I.C.)
# Text: as §1
# [5] = test system: Hemophilus influenzae A9833; assay: MIC, tube dilution, Hemophilus influenzae A9833; format: cell-based; details: Haemophilus influenzae; Hemophilus influenzae A9833; overnight 37° C.; read-out: Minimum Inhibitory Concentration (M.I.C.)
# Text: as §1
# Proteus vulgaris A21559 = assay: MIC, tube dilution, Proteus vulgaris A21559; format: cell-based; details: Proteus vulgaris, A21559, Proteus vulgaris A21559; overnight 37° C.; read-out: Minimum Inhibitory Concentration (M.I.C.)
# Text: as §1
# E. coli A15119 = assay: In vivo protection of mice, lethal infection with E. coli A15119; details: Escherichia coli, 2 treatments, read-out: PD50
# Procedure: (§2) Representative compounds of the present invention were also tested in vivo in mice and their PD50 (dose of compound in mg/kg required to protect 50% of the treated mice against an otherwise lethal infection of a micro-organism) values determined with respect to the test organisms shown below.
# S. aureus A9537 = assay: In vivo protection of mice, lethal infection with S. aureus A9537; details: Staphylococcus aureus, 2 treatments, read-out: PD50
# Procedure: as §2
# [6] = Mouse blood levels after intramuscular administration; format: in vivo; details: average of 6 mice, read-out: Mouse blood level
# Procedure: Mouse blood levels after intramuscular administration of representative compounds of the present invention were determined and are reported in the table below.
# β-lactamases = details: literature; cited from earlier work
# [7] = test system: Gram-negative and Gram-positive organisms; details: literature; cited from earlier work
SMILES,MIC (Str. pneumoniae A-9585) [µg/mL],MIC (Str. pyogenes A-9604) [µg/mL],MIC (Staph. aureus A-9537) [µg/mL],MIC [1] [µg/mL],MIC [2] [µg/mL],MIC [3] [µg/mL],MIC (Str. faecalis A-20688) [µg/mL],MIC (E. coli A-15119) [µg/mL],MIC (E. coli A-20341-1) [µg/mL],MIC (K. pneumoniae A-15130) [µg/mL],MIC [4] [µg/mL],MIC (Pr. mirabilis A-9900) [µg/mL],MIC (Pr. morganii A-15153) [µg/mL],MIC (Ser. marcescens A-20019) [µg/mL],MIC (Ent. cloacae A-9659) [µg/mL],MIC (Ent. cloacae A-9656) [µg/mL],MIC (Ps. aeruginosa A-9843A) [µg/mL],MIC (Ps. aeruginosa A-21213) [µg/mL],MIC (Proteus rettgeri A21203) [µg/mL],MIC (Proteus vulgaris A21559) [µg/mL],also measured
O=C(O)C1=C(CCCNO)SC2CC(=O)N12 (stereo not drawn) [Example 26],0.016,0.06,0.13,4,8,125,63,0.5,63,8,> 125,1,1,1,2,1,1,125,2,–,MIC [5]: 125 µg/mL
"N[C@H]1C[C@H](C2=C(C(=O)O)N3C(=O)C[C@H]3S2)C1 [Example 75, 2-(trans 3-Aminocyclobutyl)-penem-3-carboxylic Acid]",0.002,0.016,0.06,0.5,63,4,4,1,8,4,> 125,1,4,2,4,4,63,125,1,2,"ED50 (E. coli A15119; IM, 6.5 × 10^5 organisms): 25 mg/kg; ED50 (E. coli A15119; PO, 6.5 × 10^5 organisms): > 50 mg/kg; ED50 (S. aureus A9537; A9537, im, IM, 7.3 × 10^5 organisms): 0.4 mg/kg"
"N[C@H]1C[C@@H](C2=C(C(=O)O)N3C(=O)C[C@H]3S2)C1 [Example 78, 2-(cis-3'-Aminocyclobutyl)penem-3-carboxylic Acid]",0.03,0.06,0.13,2,16,8,16,2,16,4,> 125,4,8,4,4,4,16,> 125,4,4,"ED50 (E. coli A15119; IM, 7 × 10^5 organisms): 28 mg/kg; ED50 (S. aureus A9537; A9537, im, IM, 1 × 10^6 organisms): 0.63 mg/kg; ED50 (S. aureus A9537; A9537, po, PO, 1 × 10^6 organisms): 2.5 mg/kg; concentration at 10 min ([6]; 10 minutes after IM 40 mg/kg): 29700 ng/mL; concentration at 20 min ([6]; 20 minutes after IM 40 mg/kg): 19300 ng/mL; concentration at 0.5 h ([6]; 30 minutes after IM 40 mg/kg): 12600 ng/mL; concentration at 0.75 h ([6]; 45 minutes after IM 40 mg/kg): 6600 ng/mL; concentration at 1 h ([6]; 60 minutes after IM 40 mg/kg): < 5000 ng/mL; concentration at 1.5 h ([6]; 90 minutes after IM 40 mg/kg): < 5000 ng/mL; concentration at 2 h ([6]; 120 minutes after IM 40 mg/kg): < 5000 ng/mL"
O=C(O)C1=CSC2CC(=O)N12 (stereo not drawn) [drawing 10],–,–,–,–,–,–,–,–,–,–,–,–,–,–,–,–,–,–,–,–,β-lactamase inhibition (β-lactamases): no β-lactamase inhibitory activity
C[C@@H](O)[C@H]1C(=O)N2C(C(=O)O)=C(SCCN)C[C@H]12 [thienamycin],–,–,–,–,–,–,–,–,–,–,–,–,–,–,–,–,–,–,–,–,antibacterial activity [7]: highly potent broad-spectrum antibiotic
